Data taken from patent US8969542B2, “HPV polyepitope constructs and uses thereof” (priority 2007, dated 2015).
Where a SMILES comes first, the peptide text is derived from it.

Experiments:
[1] = system: CD8+ spleen cells of HLA transgenic mice (HLA-A01/Kb, F1 HLA-A02/KbxBalb/c, HLA-A11/Kb, HLA-A24/Kb); experiment: Immunogenicity after peptide pool/IFA immunization, direct ex vivo IFNγ ELISPOT; type: in vivo, mouse; details: for Peptide Pool SFC/10^6 cells Delta / Peptide Pool SFC/10^6 cells Ratio: immunization with pool of peptides emulsified in IFA, IFNγ ELISPOT; for Peptide Pool SFC/10^6 cells Delta: HLA transgenic mice (HLA-A01/A02/A11/A24), CD8+ cells restimulated with WT peptide 10 μg/mL; for Delta SFC/10^6 cells / Ratio: Peptide Pool; for Peptide Pool SFC/10^6 cells Ratio: HLA transgenic mice, response ratio, WT peptide 10 μg/mL
Experimental: CTL binding epitopes were evaluated for their immunogenicity in different HLA transgenic mice. To this, a single immunization with CTL peptide pools together with a common HTL epitope emulsified in IFA was performed and up to 14 days later, CD8+ spleen cells were isolated and evaluated for epitope specificity using a direct ex vivo IFNγ ELISPOT assay.
Peptides were dissolved in DMSO at a concentration of 10 mg/mL. For each of the 4 DNA constructs, the corresponding HLA-restricted peptides were pooled per HLA type (5 to 7 CTL peptides/pool). A known HTL peptide ([…]) was added and the peptide pools were diluted in PBS to the required peptide concentration (i.e. 25 μg of each CTL peptide and 120 μg HTL peptide in 50 μl). After adding an equal volume of IFA (Pierce, lot DG56079), the mixture was emulsified by forcing it through a small orifice. Mice were immunized subcutaneously at the base of the tail with 50 μl peptide/IFA mixture.
As negative control for the peptide-immunized mice, 18 mice (in total) were injected with a PBS/IFA mixture.
(§1) Mice were euthanized and spleen cells (SPC) were isolated 13 days after immunization. […] Spleen cells of DNA- and peptide-immunized HLA-A11/Kb mice were analyzed individually. SPC of all negative control mice were pooled per 2 mice, resulting in 3 data points for each peptide tested.
(§2) A direct ex vivo IFNγ ELISPOT assay was used as surrogate CTL readout. Basically, purified CD8+ cells were incubated with the individual HPV-specific HLA-restricted peptides (10 μg/mL) loaded on the appropriate antigen presenting cells (APC), in anti-mouse IFNγ antibody-coated ELISPOT plates. […] After 20 h incubation, IFNγ-producing cells were visualized by further developing the plates with biotinylated anti-mouse IFNγ antibody, streptavidin-HRP and AEC as substrate.
(§3) Some of the CTL epitopes included in the DNA constructs are analoged sequences of the wild type viral epitopes. For these particular epitopes, only the wild type sequences were used as in vitro stimulus for CTL readout.

[2] = system: CD8+ spleen cells of HLA transgenic mice (HLA-A01/Kb, F1 HLA-A02/KbxBalb/c, HLA-A11/Kb, HLA-A24/Kb); experiment: Immunogenicity after HPV DNA construct immunization, direct ex vivo IFNγ ELISPOT; type: in vivo, mouse; details: for ICCG6137 SFC/10^6 cells Delta / ICCG6137 SFC/10^6 cells Ratio: immunization with DNA construct ICCG 6137; for ICCG6137 SFC/10^6 cells Delta / ICCG6138 SFC/10^6 cells Delta: HLA transgenic mice (HLA-A01/A02/A11/A24), CD8+ cells restimulated with WT peptide 10 μg/mL; for ICCG6137 SFC/10^6 cells Delta / ICCG6138 SFC/10^6 cells Delta / ICCG6137 SFC/10^6 cells Ratio / ICCG6138 SFC/10^6 cells Ratio: IFNγ ELISPOT; for ICCG6138 SFC/10^6 cells Delta / ICCG6138 SFC/10^6 cells Ratio: immunization with DNA construct ICCG 6138; for ICCG6137 SFC/10^6 cells Ratio / ICCG6138 SFC/10^6 cells Ratio: HLA transgenic mice, response ratio, WT peptide 10 μg/mL
Experimental: The immunogenicity of HPV HLA class I-restricted epitopes encoded in the DNA constructs was tested in the relevant HLA transgenic mice. […] To ensure an equal distribution of mice between different groups, a randomisation procedure based on body weight was performed. Female and male mice (age between 8 and 24 weeks) were ranked by body weight, extreme light or heavy animals were excluded. The remaining animals were grouped by sequentially assigning animals for the 2 experiments.
Mice were pre-treated with cardiotoxin (Sigma, C9759) on day −4 by bilateral intramuscular injection of 100 μl (2×50 μl) of a 10 μM cardiotoxin solution. Four days later, all mice were immunised with 100 μg HPV-DNA plasmid (diluted to 1 mg/ml in PBS) by bilateral injection of 50 μg in the m. tibialis anterior. […]
as §1, §2, §3

[3] = HLA-A02 epitopes, F1 HLA-A02/KbxBalb/c mice, median of mouse pools
[4] = HLA-A02 epitopes, F1 HLA-A02/KbxBalb/c mice, DNA construct ICCG6149, median of mouse pools
[5] = HLA-A02 epitopes, F1 HLA-A02/KbxBalb/c mice, DNA construct ICCG6150, median of mouse pools
[6] = HLA-A11 epitopes, HLA-A11/Kb mice, median
[7] = HLA-A11 epitopes, HLA-A11/Kb mice, DNA construct ICCG6149, median
[8] = HLA-A11 epitopes, HLA-A11/Kb mice, DNA construct ICCG6150, median
[9] = HLA-A24 epitopes, HLA-A24/Kb mice, median of mouse pools
[10] = HLA-A24 epitopes, HLA-A24/Kb mice, DNA construct ICCG6149, median of mouse pools
[11] = HLA-A24 epitopes, HLA-A24/Kb mice, DNA construct ICCG6150, median of mouse pools
[12] = HLA-A01 epitopes, HLA-A01/Kb mice, median of mouse pools
[13] = HLA-A01 epitopes, HLA-A01/Kb mice, DNA construct ICCG6150, median of mouse pools

## CC(C)C[C@H](NC(=O)[C@H](CC(C)C)NC(=O)[C@@H](NC(=O)[C@H](CS)NC(=O)[C@H](Cc1ccccc1)NC(=O)[C@H](CS)NC(=O)[C@H](CC(C)C)NC(=O)[C@H](CC(C)C)NC(=O)[C@@H](N)Cc1ccccc1)C(C)C)C(=O)O [compound 51] (H-FLLCFCVLL-OH; N-terminus and C-terminus assumed)
[1]
  Peptide Pool SFC/10^6 cells Delta: 195 SFC/10^6 cells
[2]
  ICCG6137 SFC/10^6 cells Delta: 8 SFC/10^6 cells
  ICCG6138 SFC/10^6 cells Delta: 8 SFC/10^6 cells

## 136 (KLTNTGLYNL; Human papillomavirus type 18) [compound 136]
[1]; [3]
  Delta SFC/10^6 cells: 280 SFC/10^6 cells
  Ratio: 29.0
[2]; [4]
  Delta SFC/10^6 cells: 6 SFC/10^6 cells
  Ratio: 2.0
[2]; [5]
  Delta SFC/10^6 cells: 20 SFC/10^6 cells
  Ratio: 2.7

## 138 (FVVYRDSIPH; Human papillomavirus type 18) [compound 138]
[1]; [6]
  Delta SFC/10^6 cells: 110 SFC/10^6 cells
  Ratio: 1.3
[2]; [7]
  Delta SFC/10^6 cells: 1 SFC/10^6 cells
  Ratio: 1.0
[2]; [8]
  Delta SFC/10^6 cells: 1 SFC/10^6 cells
  Ratio: 1.0

## 133 (YMLDLQPETT; Human papillomavirus type 16) [compound 133]
[1]; [3]
  Delta SFC/10^6 cells: 1 SFC/10^6 cells
  Ratio: 1.0
[2]; [4]
  Delta SFC/10^6 cells: 5 SFC/10^6 cells
  Ratio: 1.4
[2]; [5]
  Delta SFC/10^6 cells: 10 SFC/10^6 cells
  Ratio: 3.3

## 151 (RTEVYQFAFK; Human papillomavirus type 45) [compound 151]
[1]
  Peptide Pool SFC/10^6 cells Delta: 1 SFC/10^6 cells
  Peptide Pool SFC/10^6 cells Ratio: 1.0
[2]
  ICCG6137 SFC/10^6 cells Delta: 1 SFC/10^6 cells
  ICCG6137 SFC/10^6 cells Ratio: 1.0
  ICCG6138 SFC/10^6 cells Delta: 1 SFC/10^6 cells
  ICCG6138 SFC/10^6 cells Ratio: 1.0

## 140 (PYAVCDKCL; Human papillomavirus type 16) [compound 140]
[1]; [9]
  Delta SFC/10^6 cells: 150 SFC/10^6 cells
  Ratio: 4.2
[2]; [10]
  Delta SFC/10^6 cells: 3 SFC/10^6 cells
  Ratio: 1.1
[2]; [11]
  Delta SFC/10^6 cells: 1 SFC/10^6 cells
  Ratio: 1.0

## 146 (QAEPDTSNY; Human papillomavirus type 31) [compound 146]
[1]
  Peptide Pool SFC/10^6 cells Delta: 4 SFC/10^6 cells
  Peptide Pool SFC/10^6 cells Ratio: 1.2
[2]
  ICCG6138 SFC/10^6 cells Delta: 23 SFC/10^6 cells
  ICCG6138 SFC/10^6 cells Ratio: 2.5

## 149 (YQFAFKDLCI; Human papillomavirus type 45) [compound 149]
[1]
  Peptide Pool SFC/10^6 cells Delta: 10 SFC/10^6 cells
  Peptide Pool SFC/10^6 cells Ratio: 2.0
[2]
  ICCG6137 SFC/10^6 cells Delta: 3 SFC/10^6 cells
  ICCG6137 SFC/10^6 cells Ratio: 1.1
  ICCG6138 SFC/10^6 cells Delta: 1 SFC/10^6 cells
  ICCG6138 SFC/10^6 cells Ratio: 1.0

## 141 (RFHNIRGRW; Human papillomavirus type 16) [compound 141]
[1]; [9]
  Delta SFC/10^6 cells: 205 SFC/10^6 cells
  Ratio: 6.9
[2]; [10]
  Delta SFC/10^6 cells: 3 SFC/10^6 cells
  Ratio: 1.1
[2]; [11]
  Delta SFC/10^6 cells: 1 SFC/10^6 cells
  Ratio: 1.0

## CC(C)C[C@H](NC(=O)[C@H](CS)NC(=O)[C@@H](NC(=O)[C@H](CO)NC(=O)[C@H](Cc1ccccc1)NC(=O)[C@H](CS)NC(=O)[C@H](CC(C)C)NC(=O)[C@H](CC(C)C)NC(=O)[C@@H](N)Cc1ccccc1)C(C)C)C(=O)O [compound 75] (H-FLLCFSVCL-OH; N-terminus and C-terminus assumed)
[1]
  Peptide Pool SFC/10^6 cells Delta: 75 SFC/10^6 cells
[2]
  ICCG6137 SFC/10^6 cells Delta: 1 SFC/10^6 cells
  ICCG6138 SFC/10^6 cells Delta: 1 SFC/10^6 cells

## 145 (CYSVYGTTL; Human papillomavirus type 16-derived epitope) [compound 145]
[1]; [9]
  Delta SFC/10^6 cells: 55 SFC/10^6 cells
  Ratio: 1.8
[2]; [10]
  Delta SFC/10^6 cells: 23 SFC/10^6 cells
  Ratio: 1.4
[2]; [11]
  Delta SFC/10^6 cells: 90 SFC/10^6 cells
  Ratio: 2.6

## 137 (DSVYGDTLEK; Human papillomavirus type 18) [compound 137]
[1]; [6]
  Delta SFC/10^6 cells: 40 SFC/10^6 cells
  Ratio: 1.1
[2]; [7]
  Delta SFC/10^6 cells: 15 SFC/10^6 cells
  Ratio: 1.2
[2]; [8]
  Delta SFC/10^6 cells: 1 SFC/10^6 cells
  Ratio: 1.0

## 144 (LYGVSFTEL; Human papillomavirus type 16-derived epitope) [compound 144]
[1]; [9]
  Delta SFC/10^6 cells: 5 SFC/10^6 cells
  Ratio: 1.1
[2]; [10]
  Delta SFC/10^6 cells: 3 SFC/10^6 cells
  Ratio: 1.0
[2]; [11]
  Delta SFC/10^6 cells: 1 SFC/10^6 cells
  Ratio: 1.0

## 132 (ISEYRHYCY; Human papillomavirus type 16) [compound 132]
[1]; [12]
  Delta SFC/10^6 cells: 2 SFC/10^6 cells
  Ratio: 1.1
[2]; [13]
  Delta SFC/10^6 cells: 3 SFC/10^6 cells
  Ratio: 1.1

## 148 (FAFTDLTIV; Human papillomavirus type 31) [compound 148]
[1]
  Peptide Pool SFC/10^6 cells Delta: 100 SFC/10^6 cells
  Peptide Pool SFC/10^6 cells Ratio: 8.5
[2]
  ICCG6137 SFC/10^6 cells Delta: 1 SFC/10^6 cells
  ICCG6137 SFC/10^6 cells Ratio: 1.0
  ICCG6138 SFC/10^6 cells Delta: 1 SFC/10^6 cells
  ICCG6138 SFC/10^6 cells Ratio: 1.0

## 135 (TIHDIILECV; Human papillomavirus type 16) [compound 135]
[1]; [3]
  Delta SFC/10^6 cells: 80 SFC/10^6 cells
  Ratio: 10.0
[2]; [4]
  Delta SFC/10^6 cells: 562 SFC/10^6 cells
  Ratio: 86.7
[2]; [5]
  Delta SFC/10^6 cells: 358 SFC/10^6 cells
  Ratio: 24.8

## CSCC[C@H](N)C(=O)N[C@@H](Cc1ccc(O)cc1)C(=O)N[C@H](C(=O)N[C@@H](CS)C(=O)N[C@@H](CS)C(=O)N[C@@H](Cc1c[nH]cn1)C(=O)N[C@H](C(=O)N1CCC[C@H]1C(=O)N[C@@H](CC(C)C)C(=O)O)C(C)C)C(C)C [compound 42] (H-MYVCCHVPL-OH; N-terminus and C-terminus assumed)
[1]; [9]
  Delta SFC/10^6 cells: 1 SFC/10^6 cells
[2]; [10]
  Delta SFC/10^6 cells: 1 SFC/10^6 cells
[2]; [11]
  Delta SFC/10^6 cells: 1 SFC/10^6 cells

## 139 (CYSLYGTTL; Human papillomavirus type 16) [compound 139]
[1]; [9]
  Delta SFC/10^6 cells: 1 SFC/10^6 cells
  Ratio: 1.0
[2]; [10]
  Delta SFC/10^6 cells: 3 SFC/10^6 cells
  Ratio: 1.0
[2]; [11]
  Delta SFC/10^6 cells: 1 SFC/10^6 cells
  Ratio: 1.0

## 147 (LQDVSIACVY; Human papillomavirus type 45) [compound 147]
[1]
  Peptide Pool SFC/10^6 cells Delta: 1 SFC/10^6 cells
  Peptide Pool SFC/10^6 cells Ratio: 1.0
[2]
  ICCG6138 SFC/10^6 cells Delta: 6 SFC/10^6 cells
  ICCG6138 SFC/10^6 cells Ratio: 1.4
